According to article PMC8504809 (Clinical and Translational Science, 2021):
One block for each molecule: values may come before it.

Experiments:
[1] = Plasma pharmacokinetics after single IV cassette infusion; format: in vivo, cynomolgus monkey
Liver exposure = format: in vivo, cynomolgus monkey; conditions: for liver concentration, RIF vs vehicle, at 1 h: 1 h post IV infusion; for increase of liver concentration with RIF at 6 h: average, RIF vs vehicle, N = 2 per time point
[2] = test system: suspension monkey hepatocytes; assay: In vitro hepatic uptake clearance in suspension monkey hepatocytes; format: in vitro ADME, cynomolgus monkey; conditions: 37°C
[3] = Monkey PBPK model fitting of plasma and liver concentrations; set-up: species or system cynomolgus monkey; conditions: for reduction of active uptake clearance with rifampin inhibition (modeled): PBPK model, RIF vs vehicle; for Kp: plasma and liver
[4] = cited from earlier work
[5] = Urinary excretion in monkeys; format: in vivo; conditions: in-house bile duct cannulation (BDC) monkey study (data not shown)
[6] = clinical trial; cited from earlier work
[7] = Pharmacokinetics of rifampin after oral administration; format: in vivo; conditions: male, cynomolgus monkey, plasma, 20 mg/kg
[8] = monkeys; cited from earlier work
[9] = humans; cited from earlier work
OATP1B1 = conditions: read-out: Ki against OATP1B1; cited from earlier work
OATP1B3 = conditions: read-out: Ki against OATP1B3; cited from earlier work
OAT2 = conditions: read-out: IC50 for OAT2; cited from earlier work
[10] = RIF 20 mg/kg orally vs vehicle, monkeys
[11] = PBPK fitted, rifampin, estimate (%CV)
[12] = PBPK fitted, vehicle, estimate (%CV)
[13] = cynomolgus monkey, intravenous, 0.5 mg/kg, Kp,rest, PBPK fitted, vehicle, estimate (%CV)
[14] = cynomolgus monkey, intravenous, 0.5 mg/kg, Kp,scalar, PBPK fitted, vehicle, estimate (%CV)
[15] = rifampin, fixed to the value estimated without rifampin

Molecule: Nc1c(CC(=O)O)cccc1C(=O)c1ccc(Br)cc1 [Bromfenac]
decrease of systemic CL in the presence of RIF [1, 10]: 2.1 fold
increase of plasma exposure (AUClast) with RIF compared to the vehicle group [1, 10]: 2.1 fold
liver concentrations, vehicle vs RIF pretreated groups, at 1, 2.5, and 6 h (Liver exposure): overlapped
hepatocyte uptake in the presence of 200 µM of rifamycin SV [2]: partially inhibit
CL,u,int,passive [3, 11]: 11.2 (95.3%) ml/min/kg
CLu,int,active [3, 11]: 820 (10.8%) ml/min/kg
CLu,int,meta [3, 11]: 84.8 (3.8%) ml/min/kg
CL,u,int,passive [3, 12]: 13.1 (96.2%) ml/min/kg
CLu,int,active [3, 12]: 2300 (18.7%) ml/min/kg
CLu,int,meta [3, 12]: 49.7 (16.9%) ml/min/kg
reduction of active uptake clearance with rifampin inhibition (modeled) [3]: 64%
Kp [3, 13]: 0.8
Kp [3, 14]: 0.5
bromfenac glucuronide excreted in urine, % of the administered dose ([4]; healthy subjects): 82.5%

Molecule: CC1=C(CCC(=O)O)c2cc3nc(cc4[nH]c(cc5[nH]c(cc1n2)c(C)c5CCC(=O)O)c(CCC(=O)O)c4C)C(CCC(=O)O)=C3C [CP‐III]
increase of plasma exposure (AUClast) with RIF compared to the vehicle group [1, 10]: 8.8 fold
liver concentration, RIF vs vehicle, at 1 h (Liver exposure): minimally changed
increase of liver concentration with RIF at 6 h (Liver exposure): 3.7 fold

Molecule: COc1ccccc1[C@H](Cn1c(=O)n(C(C)(C)C(=O)O)c(=O)c2c(C)c(-c3ncco3)sc21)OC1CCOCC1 [GS‐0976]
pharmacodynamic (PD) effect with potent OATP inhibitor [6]: not altered
plasma concentration with potent OATP inhibitor [6]: increased significantly

Molecule: O=C(O)C[C@H](O)C[C@H](O)/C=C/c1c(C2CC2)nc2ccccc2c1-c1ccc(F)cc1 [pitavastatin]
increase of systemic exposure when co-administered orally with rifampin [9]: 5.7 fold

Molecule: CO[C@H]1/C=C/O[C@@]2(C)Oc3c(C)c(O)c4c(O)c(cc(O)c4c3C2=O)NC(=O)/C(C)=C\C=C\[C@H](C)[C@H](O)[C@@H](C)[C@@H](O)[C@@H](C)[C@H](OC(C)=O)[C@@H]1C [rifamycin SV]
Ki (OATP1B1): 2000 nM
Ki (OATP1B3): 3000 nM
IC50 (OAT2): ~200000 nM

Further lines, with some results ahead:

decrease of systemic CL in the presence of RIF [1, 10]: about 10 fold
increase of Cmax with RIF [1, 10]: 4.8 fold
increase of plasma exposure (AUClast) with RIF compared to the vehicle group [1, 10]: 9.1 fold
volume of distribution (V) ([1]; in the presence of RIF): 0.05 L/kg
volume of distribution (V) ([1]; vehicle group (without RIF)): 0.11 L/kg
liver concentration, RIF vs vehicle, at 1 h (Liver exposure): comparable
liver concentrations, RIF-treated vs vehicle group, at 2.5 h and 6 h (Liver exposure; 2.5 h and 6 h): higher
average Kp,liver (liver to plasma ratio) (Liver exposure; without RIF (reduced by RIF treatment), Figure S3): ~17
hepatocyte uptake in the presence of 200 µM of rifamycin SV [2]: greatly inhibited
CL,u,int,passive [3, 11]: 2.9 (32.4%) ml/min/kg
CLu,int,active [3, 11]: 95.2 (4.4%) ml/min/kg
CLu,int,bile [3, 11]: 11.7 (0.1%) ml/min/kg
CL,u,int,passive [3, 12]: 4.1(11.8%) ml/min/kg
CLu,int,active [3, 12]: 1154.1 (5.2%) ml/min/kg
CLu,int,bile [3, 12]: 16.3 (0.022%) ml/min/kg
Kp,rest [3, 12]: 0.85 (6.1%)
Kp,scalar [3, 12]: 0.16 (29.4%)
Kp,rest [3, 15]: 0.85 (fixed)
Kp,scalar [3, 15]: 0.16 (fixed)
Urinary excretion, % of total dose [5]: 7.5%
Molecule: CN(C)c1ccc2c(c1)c(=O)n(-c1ccc(C[C@H](NC(=O)c3c(Cl)cccc3Cl)C(=O)O)cc1)c(=O)n2C [Carotegrast]

concentration at 3.25 h ([7]; oral): 20.8 µM
concentration at 6 h ([7]; oral): > 10 µM
Tmax ([7]; po): 3.5 to 4.5 h
Molecule: CO[C@H]1/C=C/O[C@@]2(C)Oc3c(C)c(O)c4c(O)c(c(/C=N/N5CCN(C)CC5)c(O)c4c3C2=O)NC(=O)/C(C)=C\C=C\[C@H](C)[C@H](O)[C@@H](C)[C@@H](O)[C@@H](C)[C@H](OC(C)=O)[C@@H]1C [RIF, rifampin]

decrease of systemic CL in the presence of RIF [1, 10]: 2.2 fold
increase of plasma exposure (AUClast) with RIF compared to the vehicle group [1, 10]: 2.3 fold
liver concentrations, vehicle vs RIF pretreated groups, at 1, 2.5, and 6 h (Liver exposure): overlapped
hepatocyte uptake in the presence of 200 µM of rifamycin SV [2]: greatly inhibited
CL,u,int,passive [3, 11]: 0.5 (41%) ml/min/kg
CLu,int,active [3, 11]: 81.7 (8.5%) ml/min/kg
CLu,int,bile [3, 11]: 2.6 (19.7%) ml/min/kg
CL,u,int,passive [3, 12]: 1.0 (22.5%) ml/min/kg
CLu,int,active [3, 12]: 331.8 (13.8%) ml/min/kg
CLu,int,bile [3, 12]: 2.8 (1.7%) ml/min/kg
reduction of active uptake clearance with rifampin inhibition (modeled) [3]: 75%
Kp [3, 13]: 2.7
Kp [3, 14]: 1.1
CL renal ([3]; cynomolgus monkey, plasma, intravenous, 0.5 mg/kg): 4.4 mL/min/kg
Molecule: CC(C)c1nc(N(C)S(C)(=O)=O)nc(-c2ccc(F)cc2)c1/C=C/[C@@H](O)C[C@@H](O)CC(=O)O [Rosuvastatin]
Urinary excretion, % of the absorbed dose [8]: ~ 20%
fraction cleared through renal excretion ([4]; humans): less than 10%

increase of plasma exposure (AUClast) with RIF compared to the vehicle group [1, 10]: 5.4 fold
liver concentration, RIF vs vehicle, at 1 h (Liver exposure): minimally changed
increase of liver concentration with RIF at 6 h (Liver exposure): 3.2 fold
Molecule: coproporphyrin I [CP‐I]
